Measurements as given in ChEMBL document CHEMBL4196002, “Design, synthesis, mechanistic and histopathological studies of small-molecules of novel indole-2-carboxamides and pyrazino[1,2-a]indol-1(2H)-ones as potential anticancer agents effecting the reactive oxygen species production” (Eur J Med Chem, 2018).

How the values were obtained:
[1] = Cytotoxicity against human MCF10A cells assessed as cell viability at 50 uM after 96 hrs by MTT assay relative to control; assay type: cell-based, MCF-10A; settings: read-out: Activity
[2] = Inhibition of ROS generation in human PMN at 0.78 ug/ml after 50 mins by luminol-based chemiluminescence assay relative to control; assay type: functional
[3] = Inhibition of ROS generation in human PMN at 1.56 ug/ml after 50 mins by luminol-based chemiluminescence assay relative to control; assay type: functional
PC-3 = assay: Antiproliferative activity human PC3 cells after 48 hrs by propidium iodide staining-based fluorescence assay; assay type: functional, cell-based; settings: PC-3, 48 h
A549 = assay: Antiproliferative activity human A549 cells after 48 hrs by propidium iodide staining-based fluorescence assay; assay type: functional, cell-based; settings: A549, 48 h
MCF7 = assay: Antiproliferative activity human MCF7 cells after 48 hrs by propidium iodide staining-based fluorescence assay; assay type: functional, cell-based; settings: MCF7, 48 h
MIA PaCa-2 = assay: Antiproliferative activity human MIAPaCa2 cells after 48 hrs by propidium iodide staining-based fluorescence assay; assay type: functional, cell-based; settings: MIA PaCa-2, 48 h
HT-29 = assay: Antiproliferative activity human HT-29 cells after 48 hrs by propidium iodide staining-based fluorescence assay; assay type: functional, cell-based; settings: HT-29, 48 h
Tubulin (Homo sapiens) = Tubulin (Homo sapiens) (UniProt P68371+Q9H4B7+P0DPH7+P68366+Q13509+Q71U36+P04350+Q3ZCM7+P07437+P68363+Q9BQE3+Q6PEY2+Q13885+Q9BVA1+Q9BUF5); assay: Inhibition of tubulin (unknown origin) polymerization assessed as tubulin assembly rate by fluorescence assay; assay type: protein-complex assay
[4] = target: Epidermal growth factor receptor (Homo sapiens, UniProt P00533); assay: Inhibition of His6-tagged EGFR (unknown origin) cytoplasmic domain expressed in baculovirus infected Sf9 insect cells after 10 mins followed by addition of ATP-MgCl2 and measured after 1 hr by time-resolved fluorometric analysis
[5] = target: Serine/threonine-protein kinase B-raf (Mus musculus, UniProt P28028, V600E); assay: Inhibition of mouse full-length GST-tagged BRAF V600E mutant using recombinant human full length N-terminal His-tagged MEK1 as substrate preincubated for 60 mins followed by substrate addition and measured after 25 mins by ELISA
[6] = Inhibition of ROS generation in human PMN at 3.13 ug/ml after 50 mins by luminol-based chemiluminescence assay relative to control; assay type: functional
[7] = Inhibition of ROS generation in human PMN at 6.25 ug/ml after 50 mins by luminol-based chemiluminescence assay relative to control; assay type: functional
[8] = Inhibition of ROS generation in human PMN at 12.5 ug/ml after 50 mins by luminol-based chemiluminescence assay relative to control; assay type: functional
[9] = (§1) Inhibition of ROS generation in human PMN after 50 mins by luminol-based chemiluminescence assay; assay type: functional
Homo sapiens = species on record: Homo sapiens; assay: as §1; assay type: functional
[10] = Antioxidant activity assessed as DPPH radical scavenging activity at 100 uM after 30 mins dark incubation; assay type: functional
[11] = Antioxidant activity assessed as DPPH radical scavenging activity at 50 uM after 30 mins dark incubation; assay type: functional
[12] = Antioxidant activity assessed as DPPH radical scavenging activity at 10 uM after 30 mins dark incubation; assay type: functional

Epidermal growth factor receptor, sequence (P00533 whole entry, the tested form may be a part): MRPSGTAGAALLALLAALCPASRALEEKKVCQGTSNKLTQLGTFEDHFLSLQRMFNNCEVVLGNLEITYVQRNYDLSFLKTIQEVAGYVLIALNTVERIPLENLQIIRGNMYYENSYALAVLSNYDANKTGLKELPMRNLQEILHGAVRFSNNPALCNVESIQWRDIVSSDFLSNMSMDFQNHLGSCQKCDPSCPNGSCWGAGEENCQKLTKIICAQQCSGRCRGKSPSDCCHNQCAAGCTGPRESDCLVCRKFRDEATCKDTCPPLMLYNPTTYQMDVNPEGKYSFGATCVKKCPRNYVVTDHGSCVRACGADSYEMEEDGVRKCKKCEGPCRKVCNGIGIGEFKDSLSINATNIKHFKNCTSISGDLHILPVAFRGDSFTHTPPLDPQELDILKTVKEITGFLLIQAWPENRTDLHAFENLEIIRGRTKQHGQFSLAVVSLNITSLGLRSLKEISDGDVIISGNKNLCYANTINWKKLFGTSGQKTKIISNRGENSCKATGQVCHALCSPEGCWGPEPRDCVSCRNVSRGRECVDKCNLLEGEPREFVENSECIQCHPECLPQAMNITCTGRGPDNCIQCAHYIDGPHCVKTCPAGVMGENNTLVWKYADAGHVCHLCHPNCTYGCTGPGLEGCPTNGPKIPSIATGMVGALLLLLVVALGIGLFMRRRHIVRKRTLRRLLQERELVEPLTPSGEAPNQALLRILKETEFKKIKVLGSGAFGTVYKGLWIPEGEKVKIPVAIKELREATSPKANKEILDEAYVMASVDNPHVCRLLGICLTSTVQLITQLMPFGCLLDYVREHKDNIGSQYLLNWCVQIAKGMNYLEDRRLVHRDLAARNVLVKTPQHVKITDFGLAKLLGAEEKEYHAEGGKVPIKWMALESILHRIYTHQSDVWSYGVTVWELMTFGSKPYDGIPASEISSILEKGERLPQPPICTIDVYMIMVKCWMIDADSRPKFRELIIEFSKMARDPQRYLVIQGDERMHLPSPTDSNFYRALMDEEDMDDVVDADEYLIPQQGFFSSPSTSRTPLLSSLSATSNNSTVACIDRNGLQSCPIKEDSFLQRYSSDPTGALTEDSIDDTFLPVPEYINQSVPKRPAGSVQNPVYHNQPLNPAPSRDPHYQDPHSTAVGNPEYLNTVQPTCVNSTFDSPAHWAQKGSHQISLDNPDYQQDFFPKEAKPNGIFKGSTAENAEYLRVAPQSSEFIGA
Serine/threonine-protein kinase B-raf, sequence (P28028 whole entry, looked up, stated change not applied): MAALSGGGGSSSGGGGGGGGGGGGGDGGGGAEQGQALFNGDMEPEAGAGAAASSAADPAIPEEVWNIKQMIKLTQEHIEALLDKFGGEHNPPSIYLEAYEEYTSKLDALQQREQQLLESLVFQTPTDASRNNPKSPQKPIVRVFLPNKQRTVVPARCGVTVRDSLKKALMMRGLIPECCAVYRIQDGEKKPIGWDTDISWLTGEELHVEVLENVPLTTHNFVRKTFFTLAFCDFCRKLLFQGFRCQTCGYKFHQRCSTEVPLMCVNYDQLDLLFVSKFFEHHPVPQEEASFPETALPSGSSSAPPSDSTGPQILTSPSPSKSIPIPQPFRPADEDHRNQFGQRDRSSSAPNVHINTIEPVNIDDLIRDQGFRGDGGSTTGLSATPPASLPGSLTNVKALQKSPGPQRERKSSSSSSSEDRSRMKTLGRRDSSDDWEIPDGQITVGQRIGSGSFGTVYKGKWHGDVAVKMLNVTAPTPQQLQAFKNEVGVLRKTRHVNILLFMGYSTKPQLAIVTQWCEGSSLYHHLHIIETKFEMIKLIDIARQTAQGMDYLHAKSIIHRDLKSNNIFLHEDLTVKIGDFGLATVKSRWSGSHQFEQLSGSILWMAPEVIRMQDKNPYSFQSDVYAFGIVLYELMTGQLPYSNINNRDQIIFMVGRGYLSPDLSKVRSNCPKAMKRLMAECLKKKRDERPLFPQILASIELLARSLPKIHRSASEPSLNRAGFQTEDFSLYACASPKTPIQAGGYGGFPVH

Compound | viability at 96 h, 50 µM [1] | inhibition at 0.78 µg/mL [2] | inhibition at 1.56 µg/mL [3] | IC50 (PC-3) | IC50 (A549) | IC50 (MCF7) | IC50 (MIA PaCa-2) | IC50 (HT-29) | Activity (Tubulin (Homo sapiens)) | IC50 [4] | IC50 [5] | inhibition at 3.13 µg/mL [6] | inhibition at 6.25 µg/mL [7] | inhibition at 12.5 µg/mL [8] | IC50 [9] | inhibition (Homo sapiens) | Activity [10] | Activity [11] | Activity [12]
Cc1c(C(=O)NC(CO)Cc2ccccc2)[nH]c2ccc(Cl)cc12 (stereo not given) | 90% | 39% | 45% | 2.5 µM | 2.9 µM | 2.8 µM | 2.6 µM | 2.9 µM | 2570 a.u. | 0.5 µM | 3.7 µM | 58% | 65% | 74% | 5.91 µM | Dose-dependent effect | 86.4% | 72.7% | 55.4%
O=C(NC(CO)Cc1ccccc1)c1cc2cc(Cl)ccc2[nH]1 (stereo not given) | 89% | 25% | 33% | 2.4 µM | 1.9 µM | 1.4 µM | 2.6 µM | 2.4 µM | 2420 a.u. | 0.8 µM | 4.8 µM | 48% | 60% | 77% | 11.3 µM | Dose-dependent effect | 77.5% | 61.2% | 50.2%
O=c1[nH]c(Cc2ccccc2)cn2c1cc1ccccc12 | 92% | 14% | 27% | 13.4 µM | 14.7 µM | 13.6 µM | 13.8 µM | 13.8 µM |  |  |  | 40% | 51% | 68% | 19 µM | Dose-dependent effect | 65.9% | 52.4% | 29.3%
O=C(NC(CO)Cc1ccccc1)c1cc2ccccc2[nH]1 (stereo not given) | 96% | 9% | 21% | 16.5 µM | 15.4 µM | 16.4 µM | 18.6 µM | 16.9 µM |  |  |  | 32% | 47% | 64% | 23.1 µM | Dose-dependent effect | 64.6% | 50.1% | 24.8%
CCc1c2cc(Br)ccc2n2cc(Cc3ccccc3)[nH]c(=O)c12 | 82% | 25% | 44% | 3.4 µM | 4.5 µM | 3.6 µM | 4.6 µM | 4.8 µM |  |  |  | 52% | 61% | 70% | 6.44 µM | Dose-dependent effect | 82.4% | 73.9% | 54.5%
CCc1c2cc(Cl)ccc2n2cc(Cc3ccccc3)[nH]c(=O)c12 | 89% | 14% | 27% | 5.1 µM | 6 µM | 7.5 µM | 8.3 µM | 7.7 µM |  |  |  | 37% | 60% | 72% | 13.8 µM | Dose-dependent effect | 71.6% | 59% | 40.8%
CCc1c(C(=O)NC(CO)Cc2ccccc2)[nH]c2ccc(Br)cc12 (stereo not given) | 85% | 19% | 31% | 5.9 µM | 4.8 µM | 4.7 µM | 5.5 µM | 6.5 µM |  |  |  | 45% | 55% | 67% | 10.6 µM | Dose-dependent effect | 78.5% | 67.4% | 49.2%
Cc1c(C)c2c(c(C)c1O)CCC(C)(C(=O)O)O2 (stereo not given) |  |  |  |  |  |  |  |  |  |  |  |  |  |  |  |  | 95.2% | 82.5% | 77.6%
CC(=O)Oc1ccccc1C(=O)O [ASPIRIN] |  | 33% | 46% |  |  |  |  |  |  |  |  | 63% | 85% | 92% | 9.78 µM |  |  |  | 
CCc1c2cc(Cl)ccc2n2cc(Cc3ccc(Cl)cc3)[nH]c(=O)c12 | 90% | 25% | 37% | 15.8 µM | 27.9 µM | 26.5 µM | 33.7 µM | 27.8 µM |  |  |  | 52% | 68% | 83% | 7.77 µM | Dose-dependent effect | 84.5% | 70.1% | 50.4%
CCc1c(C(=O)NC(CO)Cc2ccc(Cl)cc2)[nH]c2ccc(Cl)cc12 (stereo not given) | 92% | 22% | 28% | 17.8 µM | 29.5 µM | 35.4 µM | 36 µM | 34.7 µM |  |  |  | 43% | 58% | 74% | 11.8 µM | Dose-dependent effect | 79.9% | 59.3% | 41.4%
CCc1c(C(=O)NC(CO)Cc2ccccc2)[nH]c2ccc(Cl)cc12 (stereo not given) | 87% | 20% | 31% | 8.9 µM | 11.4 µM | 12.9 µM | 12.5 µM | 12.2 µM |  |  |  | 42% | 55% | 68% | 13 µM | Dose-dependent effect | 70.2% | 58.7% | 39.9%
